5 compounds from the supplement of paper PMC11061612 can be followed below.

Molecules are shown by their SMILES.

Common to all, as to test: combination Emax (second highest fraction inhibited in the dose matrix, 72 h); higher = more inhibition; extreme values may be limits of the assay
Assay [1] concerns BFTC-905 (Bladder Carcinoma). The essentials:
(§1)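 Bliss excess equals the observed combination effect minus the expected value EA + EB − EA·EB, where EA and EB are the effects of each agent alone. Combination Emax is the second-highest inhibition within the matrix. Inhibition was scaled from CellTiter-Glo 2.0 luminescence, with 0 set by vehicle wells and 1 by blank wells, after 72 hours of two-drug dosing of cells plated in 1536-well plates.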

For assay [2], the system named is BL-41 (Burkitt's Lymphoma). The essentials: as §1
Assay [3] has as its system CAMA-1 (Breast Carcinoma). The essentials: as §1
Assay [4] deals with CHP-212 (Neuroblastoma). The procedure, abridged:
as §1

The subject of assay [5] is COLO-678 (Colorectal Carcinoma). The essentials:
as §1

Assay [6] has as its system DND-41 (T-Lymphoblastic Leukemia). The essentials:
as §1

In assay [7] the test system is EVSA-T (Breast Carcinoma). The essentials:
as §1

Assay [8] relates to HDQ-P1 (Breast Carcinoma). The essentials: as §1
The subject of assay [9] is K-562 (Chronic Myelogenous Leukemia). The procedure, abridged:
as §1

For assay [10], the system named is KCL-22 (Chronic Myelogenous Leukemia). The essentials:
as §1

The subject of assay [11] is KM12 (Colorectal Carcinoma). The procedure, abridged:
as §1

Assay [12] has as its system KYSE-180 (Esophageal Squamous Cell Carcinoma). The essentials:
as §1

The test system of assay [13] is MKN28 (Gastric Carcinoma). The essentials: as §1
In assay [14] the test system is NCI-H1792 (Lung Adenocarcinoma). The procedure, abridged:
as §1

For assay [15], the system named is NCI-H2818 (Mesothelioma). The essentials:
as §1

Assay [16] has as its system P12-ICHIKAWA (T-Lymphoblastic Leukemia). The procedure, abridged:
as §1

The test system of assay [17] is PANC-08-13 (Pancreatic Carcinoma). The essentials: as §1
The test system of assay [18] is U251 (Low Grade Glioma). The essentials: as §1
Assay [19] has as its system WIL2-NS (Non-Cancerous). The essentials: as §1
Assay [20] has as its system WM-115 (Melanoma). The procedure, abridged: as §1

`CC1(C)CCC(CN2CCN(c3ccc(C(=O)NS(=O)(=O)c4ccc(NCC5CCOCC5)c([N+](=O)[O-])c4)c(Oc4cnc5[nH]ccc5c4)c3)CC2)=C(c2ccc(Cl)cc2)C1` [Venetoclax] + C=CCn1c(=O)c2cnc(Nc3ccc(N4CCN(C)CC4)cc3)nc2n1-c1cccc(C(C)(C)O)n1 [AZD1775] (first compound max 1 µM, partner max 1 µM): the “combination Emax” value in [1] turned out to be 0.799; in assay [2] it was 1; in assay [3], 0.38; in assay [4], 0.769; in [5] it was 0.328; in [6], 1. Further, the “combination Emax” value in assay [7] is 0.329; in [8], 0.532; in assay [9] it was 0.892; in assay [10], 0.943; in [11], 0.781; in assay [12], 0.739. The “combination Emax” value in assay [13] worked out at 0.501; in assay [14], 0.828; in assay [15], 0.331; in assay [16] it was 0.966; in [17], 0.328; in assay [18], 0.297. The “combination Emax” value in assay [19] was 0.99; in [20], 0.27.
For the compound `CN(CCO)CC[C@H](CSc1ccccc1)Nc1ccc(S(=O)(=O)NC(=O)c2ccc(N3CCC([C@@H](O)c4ccccc4-c4ccc(Cl)cc4)CC3)cc2)cc1S(=O)(=O)C(F)(F)F` [AZD4320] + C[C@@H]1COCCN1C2=NC(=NC(=C2)C3(CC3)[S@](=N)(=O)C)C4=C5C=CNC5=NC=C4 [AZD6738] (first compound max 1 µM, 7x7, partner max 10 µM), the “combination Emax” value in assay [1] worked out at 0.926; in [2] it was 1; in assay [3], 0.658; in [4], 0.82; in assay [5], 0.11; in [6] it was 1. Also, the “combination Emax” value worked out at 0.213 in assay [7]; 0.745 in assay [8]; 0.88 in assay [9]; 0.976 in assay [10]; 0.764 in [11]; 0.747 in [12]. For the same compound, the “combination Emax” value stood at 0.442 in assay [13]; 0.777 in assay [14]; 0.567 in assay [15]; 1 in assay [16]; 0.636 in assay [17]; 0.534 in assay [18]. For the same compound, the figures for the “combination Emax” value in assay [19] and in assay [20] were 0.985 and 0.769, respectively.
Regarding `CS(=O)(=O)CCNCc1ccc(-c2ccc3ncnc(Nc4ccc(OCc5cccc(F)c5)c(Cl)c4)c3c2)o1` [Lapatinib] + C[C@@H](Oc1cc(-c2cnn(C3CCNCC3)c2)cnc1N)c1c(Cl)ccc(F)c1Cl [Crizotinib] (first compound max 10 µM, 7x7, partner max 10 µM), the “combination Emax” value in assay [1] worked out at 0.963; in [2] it was 0.96; in assay [3], 0.321; in assay [4], 0.988; in assay [5] it was 0.62; in assay [6] it was 0.946. Moreover, the “combination Emax” value in assay [7] is 0.985; in [8], 0.936; in assay [9], 0.962; in [10], 0.979; in [11], 0.93; in assay [12], 0.952. Further, the “combination Emax” value turned out to be 0.779 in assay [13]; 0.924 in assay [14]; 0.59 in [15]; 0.975 in assay [16]; 0.802 in assay [17]; 0.785 in assay [18]. Also, the “combination Emax” value was found to be 0.607 in assay [19] and 0.877 in [20].
Turning to `COc1cc2ncnc(Nc3ccc(F)c(Cl)c3)c2cc1OCCCN1CCOCC1` [Gefitinib] + CC(C)n1c(=O)n(C)c2cnc3cc(F)c(-c4ccc(OCCCN5CCCCC5)nc4)cc3c21 [AZD1390] (first compound max 10 µM, 7x7, partner max 0.3 µM), the “combination Emax” value in assay [1] came out at 0.212; in assay [2] it was 0.279; in assay [3] it was 0.111; in assay [4], 0.157; in [5], 0.306; in assay [6], 0.115. Besides, the “combination Emax” value in [7] was found to be 0.27; in [8], 0.383; in assay [9], 0.13; in assay [10] it was 0.155; in [11], 0.044; in [12], 0.246. Further, the “combination Emax” value in assay [13] was 0.0764; in [14], 0.231; in [15] it was 0.146; in assay [16] it was 0.144; in [17] it was 0.143; in [18] it was 0.0432. Moreover, the results for the “combination Emax” value in [19] and in assay [20] were 0.397 and 0.139, respectively.
Consider `CN(CCO)CC[C@H](CSc1ccccc1)Nc1ccc(S(=O)(=O)NC(=O)c2ccc(N3CCC([C@@H](O)c4ccccc4-c4ccc(Cl)cc4)CC3)cc2)cc1S(=O)(=O)C(F)(F)F` [AZD4320] + CN(C)CCCOc1ccc(-c2ccc3ncc4c(c3c2)n(C2CCOCC2)c(=O)n4C)cn1 [AZD0156] (first compound max 1 µM, 7x7, partner max 1 µM), for which the “combination Emax” value stood at 0.15 in [1]; 0.277 in assay [2]; 0.117 in assay [3]; 0.278 in assay [4]; 0.0581 in assay [5]; 1 in assay [6]. For the same compound, the “combination Emax” value in assay [7] worked out at 0.163; in assay [8] it was 0.465; in assay [9], 0.345; in assay [10], 0.361; in assay [11], 0.186; in assay [12], 0.112. Further, the “combination Emax” value was 0.0805 in assay [13]; 0.12 in assay [14]; 0.268 in [15]; 1 in [16]; 0.352 in assay [17]; 0.185 in assay [18]. Moreover, the “combination Emax” value in [19] was found to be 0.22; in [20], 0.363.
